# Reference: article PMC5402990 (PLoS Neglected Tropical Diseases, 2017)
# Structures can show the parent of a compound that is named as a salt. Where two headings read alike, the source gives them in different places.
# Tests used:
# EBOV/Mak = test: microbe, parasite or virus in culture; format: cell-based, Ebola virus; conditions: for IC50: Zaire ebolavirus
# MARV = test: organism not typed; format: cell-based, Marburg virus
# EBOV GP VLPs = format: cell-based, Ebola virus
# EBOV trVLPs = format: cell-based, Ebola virus
# [1] = system: EBOV VLP trafficking in BSC-1 cells; format: cell-based, Grivet monkey
# [2] = system: endosome acidification in BSC-1 cells; format: cell-based, Grivet monkey
# cathepsin B and L = format: cell-based, Grivet monkey; conditions: pH 5
# [3] = system: cholesterol levels in endolysosomes of BSC-1 cells; format: cell-based, Grivet monkey
# Huh 7 cells = conditions: human
# [4] = mouse, in vivo
# in vivo = conditions: mouse, ip, 10 mg/kg
# in vitro [5] = conditions: human
# in vitro [6] = conditions: African green monkey
# in vitro [7] = conditions: human; remark: listed apart in the source
# [8] = human, in vivo; cited from earlier work
smiles,measurement,setting,value
"Cc1cccc(/C=N/Nc2cc(N3CCOCC3)nc(OCCc3ccccn3)n2)c1 [Apilimod, apilimod]","fold higher activity than the positive control, toremifene citrate",EBOV/Mak,6- to 247 fold
same,fold less potent in Huh 7 cells,EBOV/Mak,~ 10 fold
same,IC50,EBOV/Mak,10 nM
same,IC50,EBOV/Mak; 48 h,9 ± 1 nM
same,IC50,EBOV/Mak; Huh-7,140 nM
same,IC50,"EBOV/Mak; Huh-7, 48 h",136 ± 40 nM
same,IC50,EBOV/Mak; Vero C1008,15 to 25 nM
same,IC50,"EBOV/Mak; Vero C1008, 48 h",25 ± 10 nM
same,IC50,MARV,10 nM
same,fold higher activity than the positive control,MARV,38- to 1160 fold
same,IC50,MARV; 48 h,10 ± 4 nM
same,IC50,"MARV; Huh-7, 48 h",140 ± 50 nM
same,IC50,MARV; Vero C1008,15 to 25 nM
same,IC50,"MARV; Vero C1008, 48 h",15 ± 3 nM
same,EBOV VLP entry,EBOV GP VLPs,blocks EBOV VLP entry into BSC-1 cells with the same approximate dose-dependency as its effects in HEK 293T/17 cells
same,EBOV particle (VLP) entry,EBOV GP VLPs,blocked
same,EBOV particle replication (trVLP infection),EBOV trVLPs,blocked
same,EBOV VLP trafficking to NPC1+ endolysosomes (Manders colocalization),[1],blocked EBOV VLP trafficking to NPC1^+ endolysosomes to a similar extent as nocodazole
same,VLP colocalization with EEA1+ endosomes,[1],caused EBOV VLPs to accumulate in EEA1^+ endosomes
same,VLP colocalization with NPC1 over time course,[1],at no point during this time course were VLPs seen to associate with NPC1^+ endolysosomes
same,effect on endosome acidification,[2],no detectable effect on endosome acidification
same,effect on the activity of cathepsin B and L,cathepsin B and L,no apparent direct effect
same,cholesterol levels in endolysosomes,[3],did not cause a detectable increase
same,CC50,Huh 7 cells,500 ± 100 nM
same,Cmax relative to IC50 in hMDMs,[4],~ 250 times
same,Cmax,in vivo,2530 nM
same,CC50,in vitro [5],480 ± 80 nM
same,CC50,in vitro [6],> 2000 nM
same,CC50,in vitro [7],> 2000 nM
same,tolerability in humans,[8],well-tolerated
CO/C1=C\C(C)=C\[C@@H](C)[C@@H](O)[C@@H](C)C/C(C)=C/C=C/[C@H](OC)[C@@H]([C@@H](C)[C@@H](O)[C@H](C)[C@@]2(O)C[C@@H](O)[C@H](C)[C@@H](C(C)C)O2)OC1=O [Bafilomycin],effect on endosome acidification,[2],blocks endosome acidification
CN(C)CCOc1ccc(/C(=C(/CCCl)c2ccccc2)c2ccccc2)cc1 [Toremifene citrate],IC50,EBOV/Mak,2470 nM
same,IC50,EBOV/Mak; Huh-7,730 nM
same,IC50,EBOV/Mak; Vero C1008,1670 nM
same,IC50,MARV,11600 nM
same,IC50,MARV; Huh-7,5380 nM
same,IC50,MARV; Vero C1008,2360 nM
"COC(=O)Nc1nc2ccc(C(=O)c3cccs3)cc2[nH]1 [nocodazole, Nocodazole]",EBOV VLP trafficking to NPC1+ endolysosomes (Manders colocalization),[1],blocked EBOV VLP trafficking to NPC1^+ endolysosomes to a similar extent as nocodazole
